Assays:
[1] = Mortality in bleomycin-induced lung fibrosis; format: in vivo, C57BL/6JOlaHsd mice
Experimental: The animal model of bleomycin-induced lung fibrosis is widely used to characterize the potential inhibitory effect of newly developed drugs (Distler et al. 2019). Experiments were performed in C57BL/6JOlaHsd male and female mice aged 12-13 weeks. Male mice weighed 23-27.3 g and female mice, 19.4-21.1 g. They were housed under pathogen-free conditions, up to 6 per cage, in IVC cages under a controlled temperature of 22-24° C., humidity and alternating 12-h light/dark cycles and provided with food and water ad libitum. […] Saline (2-3/sex) and bleomycin controls were anesthetized as described above. Bleomycin solution (0.25 mg/kg in 50 μl) was instilled into the lumen of the trachea as shown in a video by Ehrentraut et al. (2019). […] Mice were weighed daily and sacrificed on day 21. Bronchial fluid was collected as described in Ehrentraut et al. (2019). TNFα and IL-6 in the bronchial fluid lavage was measured by ELISA as described in the preceding section.

[2] = test system: primary mouse microglial cultures activated by lipopolysaccharide (LPS); conditions: cited from earlier work
TGFβ = experiment: Cells containing TGFβ in the lung, bleomycin-induced lung fibrosis; format: in vivo, C57BL/6JOlaHsd mice; conditions: ladostigil + bleomycin; p<0.05
Experimental: The animal model of bleomycin-induced lung fibrosis is widely used to characterize the potential inhibitory effect of newly developed drugs (Distler et al. 2019). Experiments were performed in C57BL/6JOlaHsd male and female mice aged 12-13 weeks. Male mice weighed 23-27.3 g and female mice, 19.4-21.1 g. They were housed under pathogen-free conditions, up to 6 per cage, in IVC cages under a controlled temperature of 22-24° C., humidity and alternating 12-h light/dark cycles and provided with food and water ad libitum. […] TNFα and IL-6 in the bronchial fluid lavage was measured by ELISA as described in the preceding section.
Specimens taken from the left lung were embedded in paraffin and cut into 5 μm-thick slices. […] They were rehydrated and stained with a solution of Sirius red (100 mg/100 ml of [COMPOUND LEFT OUT], rinsed in distilled water until clear, dehydrated and mounted in a resinous medium. The red stain (also called “Sirius red” stain) is one of the best understood histochemical techniques. It relies on the birefringent properties of collagen and is much more specific than the other common collagen stains, Pulmonary fibrosis was evaluated on a score of 0-4 on 15-20 different fields taken from each lung section, according to the area and intensity of fibrotic staining in the field, excluding that in blood vessels. […]

[3] = test system: cells (oxidative stress induced by Sin 1); conditions: cited from earlier work

Structure (SMILES): C#CCN[C@@H]1CCc2ccc(OC(=O)N(C)CC)cc21 [Ladostigil, 6-(N-ethyl, N-methylcarbamyloxy)-N propargyl-1 (R)-aminoindan hemitartrate]
- mortality ([1]; females, ladostigil+bleomycin, 2.5 mg/kg (2/10)): 20%
- mortality ([1]; females, ladostigil+bleomycin, 5 mg/kg (1/20)): 5%
- mortality (animals died/total) ([1]; females, ladostigil+bleomycin, dose not given): 1/11
- mortality ([1]; males, bleomycin+ladostigil 5 mg/kg, day 17 (2/9)): 22%
- mortality ([1]; males, ladostigil 10 mg/kg, day 17 (1/11)): 9%
- IL1β gene expression [2]: decreased gene expression
- IL-6 gene expression [2]: decreased gene expression
- TNFα gene expression [2]: decreased gene expression
- number of cells containing TGFβ in the lung (TGFβ): significantly reduced the number of cells containing TGFβ
- concentration preventing oxidative stress, fold lower than those inhibiting AChE or MAO [3]: 20 -fold
- oxidative stress in cells / fall in mitochondrial potential ([3]; induced by Sin 1): prevented oxidative stress in cells

— patent US20260294863A1, “METHOD OF TREATING FIBROTIC-RELATED CONDITION” (YISSUM RESEARCH DEVELOPMENT COMPANY OF THE HEBREW …, priority 2023, published 2026)
